Values of other authors in patent US11168091B2, “Quantification and preparation of pharmaceutical grade cantharidin” (priority 2015, dated 2021).

Conditions: properly stored in a cool and dry place away from strong light and heat; crude preparation of Table 6

For `CC12C(=O)OC(=O)C1(C)C1CCC2O1` (stereo not shown) [crude cantharidin, 1,2-Dimethyl-3,6-epoxyperhydrophthalic anhydride], the shelf life is given as 3 years.
